Source: PubChem BioAssay AID328 (DTP/NCI, 2004)
Values joined by “and” are separate entries in the source; they are usually repeats but may differ in a detail not shown here. Identical values can stand only once. Inconclusive results and toxic doses are left out.

Tested on: BDF1 mice, P388 leukemia ip, median survival T/C
Experiment: NCI In Vivo Anticancer Drug Screen. Data for tumor model P388 Leukemia (intraperitoneal) in B6D2F1 (BDF1) mice
Conditions: endpoint: median survival time, higher = longer survival
Outline: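 Steps: implant the tumour, treat one group with compound and another with vehicle, record survival, then divide treated by control.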

[1] = dose: 100.0 mg/kg/injection, schedule: Q01DX009 (ip), vehicle: saline with Tween-80
[2] = dose: 100.0 mg/kg/injection, schedule: Q04DX003 (ip), vehicle: saline with Tween-80
[3] = dose: 200.0 mg/kg/injection, schedule: Q01DX009 (ip), vehicle: saline with Tween-80
[4] = dose: 200.0 mg/kg/injection, schedule: Q04DX003 (ip), vehicle: saline with Tween-80
[5] = dose: 400.0 mg/kg/injection, schedule: Q01DX009 (ip), vehicle: saline with Tween-80
[6] = dose: 400.0 mg/kg/injection, schedule: Q04DX003 (ip), vehicle: saline with Tween-80
[7] = dose: 100.0 mg/kg/injection, schedule: Q04DX003 (ip), vehicle: saline
[8] = dose: 100.0 mg/kg/injection, schedule: Q01DX009 (ip), vehicle: Klucel (hydroxypropylcellulose) (HPC)
[9] = dose: 100.0 mg/kg/injection, schedule: Q04DX003 (ip), vehicle: Klucel (hydroxypropylcellulose) (HPC)
[10] = dose: 200.0 mg/kg/injection, schedule: Q01DX009 (ip), vehicle: Klucel (hydroxypropylcellulose) (HPC)
[11] = dose: 200.0 mg/kg/injection, schedule: Q04DX003 (ip), vehicle: Klucel (hydroxypropylcellulose) (HPC)
[12] = dose: 400.0 mg/kg/injection, schedule: Q04DX003 (ip), vehicle: Klucel (hydroxypropylcellulose) (HPC)
[13] = dose: 50.0 mg/kg/injection, schedule: Q01DX005 (ip), vehicle: saline with Tween-80
[14] = dose: 50.0 mg/kg/injection, schedule: Q01DX009 (ip), vehicle: Klucel (hydroxypropylcellulose) (HPC)
[15] = dose: 50.0 mg/kg/injection, schedule: Q04DX003 (ip), vehicle: Klucel (hydroxypropylcellulose) (HPC)
[16] = dose: 50.0 mg/kg/injection, schedule: Q01DX009 (ip), vehicle: saline with Tween-80

## O=C(c1ccc(Cl)cc1)C1Cc2ccccc2C1=O (centres undefined)
[1]
  T/C: 91 % of control
[2]
  T/C: 91 % of control
[3]
  T/C: 91 % of control
[4]
  T/C: 121 % of control
[5]
  T/C: 100 % of control
[6]
  T/C: 100 % of control

## CC(=O)OC1CCC(C(C)(C)C)CC1 (centres undefined)
dose: 50.0 mg/kg/injection, schedule: Q04DX003 (ip), vehicle: saline
  T/C: 95 % of control
[7]
  T/C: 109 % of control
dose: 200.0 mg/kg/injection, schedule: Q04DX003 (ip), vehicle: saline
  T/C: 109 % of control

## CC(=O)OCCCc1ccccc1
[8]
  T/C: 109 % of control
[9]
  T/C: 110 % of control
[10]
  T/C: 104 % of control
[11]
  T/C: 100 % of control
dose: 400.0 mg/kg/injection, schedule: Q01DX009 (ip), vehicle: Klucel (hydroxypropylcellulose) (HPC)
  T/C: 95 % of control
[12]
  T/C: 110 % of control

## O=[N+]([O-])c1cc([N+](=O)[O-])c(NN(c2ccccc2)c2cccc3ccccc23)c([N+](=O)[O-])c1
[9]
  T/C: 91 % of control
[11]
  T/C: 116 % of control
[12]
  T/C: 87 % of control

## O=C1Nc2c(Cl)cc(Cl)cc2/C1=N/N=C/c1ccccc1O
dose: 12.5 mg/kg/injection, schedule: Q01DX005 (ip), vehicle: saline with Tween-80
  T/C: 95 % of control
dose: 25.0 mg/kg/injection, schedule: Q01DX005 (ip), vehicle: saline with Tween-80
  T/C: 95 % of control
[13]
  T/C: 95 % of control

## CC(=O)NC(CC(=O)O)C(=O)O (centres undefined)
dose: 25.0 mg/kg/injection, schedule: Q01DX009 (ip), vehicle: saline
  T/C: 95 % of control
dose: 50.0 mg/kg/injection, schedule: Q01DX009 (ip), vehicle: saline
  T/C: 95 % of control
dose: 100.0 mg/kg/injection, schedule: Q01DX009 (ip), vehicle: saline
  T/C: 105 % of control

## COc1cc(N(CCCl)CCCl)ccc1/C=N\NC(=O)c1cccnc1
dose: 25.0 mg/kg/injection, schedule: Q01DX009 (ip), vehicle: Klucel (hydroxypropylcellulose) (HPC)
  T/C: 98 % of control
[14]
  T/C: 97 % of control
[8]
  T/C: 112 % of control

## N#Cc1ccc(NCCO)cc1
[2]
  T/C: 111 % of control
[4]
  T/C: 100 % of control
[6]
  T/C: 111 % of control

## Nc1nc2nc(N=Nc3ccccc3)[nH]c2c(=O)[nH]1
[13]
  T/C: 100 % of control
dose: 100.0 mg/kg/injection, schedule: Q01DX005 (ip), vehicle: saline with Tween-80
  T/C: 91 % of control
dose: 200.0 mg/kg/injection, schedule: Q01DX005 (ip), vehicle: saline with Tween-80
  T/C: 110 % of control

## COc1ccc(NC2=CC(C)(C(=O)O)OC2=O)cc1 (centres undefined)
[1]
  T/C: 100 % of control
[2]
  T/C: 100 % of control
[3]
  T/C: 91 % of control
[4]
  T/C: 110 % of control
[5]
  T/C: 108 % of control
[6]
  T/C: 115 % of control

## CCCCCCCCC(=O)CCC
[15]
  T/C: 100 % of control
[9]
  T/C: 109 % of control
[11]
  T/C: 100 % of control
[12]
  T/C: 87 % of control

## CC1(c2ccc(Cl)cc2)NC(=O)NC1=O (centres undefined)
dose: 200.0 mg/kg/injection, schedule: Q04DX003 (ip), vehicle: saline sonified
  T/C: 91 % of control
dose: 400.0 mg/kg/injection, schedule: Q04DX003 (ip), vehicle: saline sonified
  T/C: 87 % of control

## Cc1c(NC(=O)Nc2ccccc2F)c(=O)n(-c2ccccc2)n1C
[14]
  T/C: 100 % of control
[8]
  T/C: 90 % of control
[10]
  T/C: 95 % of control

## O=C(CNC(=O)c1ccc(C(=O)NCC(=O)Nc2ccc(C3=NCCCN3)cc2)cc1)Nc1ccc(C2=NCCCN2)cc1
dose: 11.0 mg/kg/injection, schedule: Q04DX003 (ip), vehicle: saline
  T/C: 100 % of control
dose: 16.0 mg/kg/injection, schedule: Q04DX003 (ip), vehicle: saline
  T/C: 113 % of control
dose: 25.0 mg/kg/injection, schedule: Q01DX001 (ip), vehicle: Klucel (hydroxypropylcellulose) (HPC)
  T/C: 96 % of control
dose: 50.0 mg/kg/injection, schedule: Q01DX001 (ip), vehicle: Klucel (hydroxypropylcellulose) (HPC)
  T/C: 103 % of control
dose: 66.0 mg/kg/injection, schedule: Q04DX003 (ip), vehicle: saline
  T/C: 168 % of control
dose: 75.0 mg/kg/injection, schedule: Q01DX001 (ip), vehicle: Klucel (hydroxypropylcellulose) (HPC)
  T/C: 107 % of control
dose: 100.0 mg/kg/injection, schedule: Q01DX001 (ip), vehicle: Klucel (hydroxypropylcellulose) (HPC)
  T/C: 115 % of control
[7]
  T/C: 181 % of control (2×) and 195 % of control
dose: 150.0 mg/kg/injection, schedule: Q04DX003 (ip), vehicle: saline
  T/C: 272 % of control and 186 % of control
dose: 400.0 mg/kg/injection, schedule: Q01DX001 (ip), vehicle: Klucel (hydroxypropylcellulose) (HPC)
  T/C: 168 % of control

## NC1=NC(=S)C2N=C(N=Nc3ccc(C(=O)NC(CCC(=O)O)C(=O)O)cc3)N=C2N1 (centres undefined)
dose: 1.56 mg/kg/injection, schedule: Q01DX009 (ip), vehicle: Klucel (hydroxypropylcellulose) (HPC)
  T/C: 120 % of control
dose: 3.13 mg/kg/injection, schedule: Q01DX009 (ip), vehicle: Klucel (hydroxypropylcellulose) (HPC)
  T/C: 91 % of control
dose: 6.25 mg/kg/injection, schedule: Q01DX009 (ip), vehicle: Klucel (hydroxypropylcellulose) (HPC)
  T/C: 87 % of control
dose: 25.0 mg/kg/injection, schedule: Q04DX003 (ip), vehicle: Klucel (hydroxypropylcellulose) (HPC)
  T/C: 120 % of control
[15]
  T/C: 112 % of control

## COC(=O)C(CSCSC)NC(=O)NC1CCCCC1 (centres undefined)
[2]
  T/C: 95 % of control
[4]
  T/C: 104 % of control
[6]
  T/C: 95 % of control

## CC(=O)N(O)CCCC1NC(=O)C(CCCN(O)C(C)=O)NC1=O (centres undefined)
dose: 100.0 mg/kg/injection, schedule: Q01DX001 (ip), vehicle: saline
  T/C: 90 % of control
dose: 200.0 mg/kg/injection, schedule: Q01DX001 (ip), vehicle: saline
  T/C: 90 % of control
dose: 400.0 mg/kg/injection, schedule: Q01DX001 (ip), vehicle: saline
  T/C: 95 % of control

## CN(C)c1oc2ccc3ccccc3c2c(=O)c1C#N
[16]
  T/C: 95 % of control
[1]
  T/C: 97 % of control
[3]
  T/C: 92 % of control

## CC(C)CC(NC(=O)C(O)C(N)Cc1ccccc1)C(=O)O (centres undefined)
dose: 37.5 mg/kg/injection, schedule: Q01DX009 (ip), vehicle: saline with Tween-80
  T/C: 94 % of control and 98 % of control
dose: 75.0 mg/kg/injection, schedule: Q01DX009 (ip), vehicle: saline with Tween-80
  T/C: 95 % of control and 98 % of control
dose: 150.0 mg/kg/injection, schedule: Q01DX009 (ip), vehicle: saline with Tween-80
  T/C: 95 % of control and 100 % of control

## Cc1[nH]nc(-c2ccon2)c1N
[16]
  T/C: 115 % of control
[1]
  T/C: 119 % of control
[3]
  T/C: 113 % of control

## COC(=O)C1=COC2OC3C(C(C)O)C(=O)OC34C=CC1C24 (centres undefined)
dose: 0.04 mg/kg/injection, schedule: Q01DX009 (ip), vehicle: saline + alcohol
  T/C: 90 % of control
dose: 0.2 mg/kg/injection, schedule: Q01DX009 (ip), vehicle: saline + alcohol
  T/C: 95 % of control
dose: 1.0 mg/kg/injection, schedule: Q01DX009 (ip), vehicle: saline + alcohol
  T/C: 118 % of control
dose: 5.0 mg/kg/injection, schedule: Q01DX009 (ip), vehicle: saline + alcohol
  T/C: 118 % of control

## COc1cc(C=C2C(=O)C=CC2=O)ccc1O
dose: 0.78 mg/kg/injection, schedule: Q01DX009 (ip), vehicle: saline with Tween-80
  T/C: 116 % of control
dose: 1.56 mg/kg/injection, schedule: Q01DX009 (ip), vehicle: saline with Tween-80
  T/C: 104 % of control
dose: 3.13 mg/kg/injection, schedule: Q01DX009 (ip), vehicle: saline with Tween-80
  T/C: 112 % of control
dose: 6.25 mg/kg/injection, schedule: Q01DX009 (ip), vehicle: saline with Tween-80
  T/C: 110 % of control
dose: 12.5 mg/kg/injection, schedule: Q01DX009 (ip), vehicle: saline with Tween-80
  T/C: 95 % of control

## CC1=C(C)CC2C(=O)C=CC(=O)C2C1 (centres undefined)
dose: 12.5 mg/kg/injection, schedule: Q01DX009 (ip), vehicle: water
  T/C: 95 % of control
dose: 25.0 mg/kg/injection, schedule: Q01DX009 (ip), vehicle: water
  T/C: 90 % of control
dose: 25.0 mg/kg/injection, schedule: Q04DX003 (ip), vehicle: water
  T/C: 113 % of control
dose: 50.0 mg/kg/injection, schedule: Q01DX009 (ip), vehicle: water
  T/C: 93 % of control
dose: 50.0 mg/kg/injection, schedule: Q04DX003 (ip), vehicle: water
  T/C: 113 % of control
dose: 100.0 mg/kg/injection, schedule: Q01DX009 (ip), vehicle: water
  T/C: 100 % of control
dose: 100.0 mg/kg/injection, schedule: Q04DX003 (ip), vehicle: water
  T/C: 105 % of control and 112 % of control
